Assay results: the NIST ThermoML archive (doi:10.1021/je060271a)

Conditions: 343.15 K, Liquid, Vibrating tube method

CCCCCC(=O)OCC(COC(=O)CCCCC)(COC(=O)CCCCC)COC(=O)CCCCC [pentaerythritol tetrahexanoate]
Conditions | mass density [kg/m3]
21939 kPa | 973
21970 kPa | 972.9
21994 kPa | 973
22600 kPa | 973.4
22626 kPa | 973.4
22658 kPa | 973.4
22686 kPa | 973.3
22712 kPa | 973.5
22744 kPa | 973.6
22771 kPa | 973.5
22798 kPa | 973.5
22831 kPa | 973.5
22858 kPa | 973.7
22886 kPa | 973.6
22919 kPa | 973.6
22946 kPa | 973.6
22973 kPa | 973.7
23356 kPa | 974
23808 kPa | 974.2
23832 kPa | 974.2
23863 kPa | 974.2
23889 kPa | 974.2
24332 kPa | 974.5
24359 kPa | 974.5
24391 kPa | 974.4
24418 kPa | 974.6
24449 kPa | 974.6
24476 kPa | 974.6
24504 kPa | 974.6
24536 kPa | 974.6
24563 kPa | 974.7
24590 kPa | 974.6
24623 kPa | 974.7
24651 kPa | 974.6
24678 kPa | 974.6
24711 kPa | 974.8
24738 kPa | 974.7
24766 kPa | 974.8
24799 kPa | 974.9
24827 kPa | 974.8
24855 kPa | 974.9
24888 kPa | 974.9
24917 kPa | 975
24945 kPa | 974.9
24979 kPa | 974.9
25008 kPa | 974.9
25036 kPa | 975
25070 kPa | 975
25099 kPa | 975.2
25128 kPa | 975
25162 kPa | 975.1
25191 kPa | 975.2
25220 kPa | 975.2
25249 kPa | 975.1
25284 kPa | 975.1
25313 kPa | 975.2
25349 kPa | 975.2
25379 kPa | 975.3
25408 kPa | 975.2
25438 kPa | 975.4
25473 kPa | 975.3
25502 kPa | 975.2
25532 kPa | 975.2
25562 kPa | 975.2
25598 kPa | 975.4
25628 kPa | 975.4
25657 kPa | 975.4
25693 kPa | 975.4
25724 kPa | 975.5
26078 kPa | 975.6
26108 kPa | 975.7
26134 kPa | 975.6
26161 kPa | 975.8
26188 kPa | 975.7
26213 kPa | 975.8
26245 kPa | 975.8
26271 kPa | 975.7
26298 kPa | 975.9
26330 kPa | 975.7
26356 kPa | 975.9
26387 kPa | 976
26413 kPa | 975.9
26439 kPa | 976
26471 kPa | 975.9
26498 kPa | 975.9
26524 kPa | 976
26552 kPa | 975.9
26585 kPa | 976
26612 kPa | 976.1
26644 kPa | 976
26671 kPa | 976.1
26873 kPa | 976.3
26906 kPa | 976.2
26934 kPa | 976.2
26962 kPa | 976.3
26990 kPa | 976.1
27023 kPa | 976.3
27051 kPa | 976.1
27079 kPa | 976.3
27113 kPa | 976.4
27141 kPa | 976.3
27174 kPa | 976.3
27202 kPa | 976.4
27230 kPa | 976.3
27264 kPa | 976.5
27293 kPa | 976.4
27322 kPa | 976.5
27351 kPa | 976.4
27385 kPa | 976.5
27414 kPa | 976.6
27449 kPa | 976.6
27478 kPa | 976.5
27508 kPa | 976.5
27537 kPa | 976.6
27572 kPa | 976.6
28317 kPa | 977.1
28347 kPa | 977.2
28372 kPa | 977.1
28396 kPa | 977.2
28427 kPa | 977.3
28453 kPa | 977.2
28479 kPa | 977.2
28503 kPa | 977.2
28528 kPa | 977.2
28558 kPa | 977.3
28583 kPa | 977.4
29079 kPa | 977.5
29105 kPa | 977.6
29132 kPa | 977.6
29164 kPa | 977.6
29190 kPa | 977.6
29216 kPa | 977.6
29248 kPa | 977.7
29274 kPa | 977.7
29301 kPa | 977.7
29333 kPa | 977.8
29446 kPa | 977.9
29473 kPa | 977.8
29506 kPa | 977.8
29763 kPa | 978.1
29796 kPa | 978.2
29852 kPa | 978.1
29886 kPa | 978.2
29914 kPa | 978.1
